Measured values from patent publication US8551997B2, “Structural-based inhibitors of the glutathione binding site in aldose reductase, methods of screening therefor and methods of use” (The Board of Regents of the University of Texas System, priority 2004, dated 2013).

What was measured:
C57BL/6 mice = assay: LPS signaling in the heart (NF-kB, AP1, iNOS, kinases); type: in vivo, mouse
From the text: At the indicated times, NF-kB activation (FIG. 8A), AP1 activation with an electrophoretic mobility shift assay (FIG. 8B), iNOS expression by western blotting (FIG. 8C), or PKC activation with a total PKC assay system (FIG. 8D) (SignaTect, Promega), or phosphorylated forms of the indicated kinases by western blotting (FIG. 8E), was detected. Values are means±SEM (N=4). *P<0.001 versus LPS-treated mice. OD, optical density.
In sorbinil-treated mice, however, activation of NF-κB and AP1 decreased by ˜70% at 2 h, and the levels returned to baseline by 24 h. […] These findings are consistent with the downregulation of inflammatory cytokines and chemokines in the serum and heart upon AR inhibition (FIGS. 8A-8D). […] AR inhibition attenuated the phosphorylation of almost all members of this cascade (FIG. 8D-8E). Thus, AR appears to […] the inflammatory cascade by regulating the activation of NF-κB, thereby protecting against cardiovascular collapse in the setting of overwhelming sepsis.

Caco-2 cells [1] = assay: Cox-2 mRNA RT-PCR in Caco-2 cells; type: cell-based, human; details: sorbinil 24 h, growth factor 3 h
Protocol: Total RNA was isolated from Caco-2 cells by using Rnaeasy micro isolation kit (Qiagen). Total RNA (1.5 μg) sample was reverse transcribed with Omniscript and Sensiscript reverse transcriptase one-Step RT PCR system with HotStarTaq DNA polymerase (Qiagen) at 55° C. for 30 min followed by PCR amplification. The oligonucleotide primer sequences were as follows: 5′-[…]-3′ (sense; SEQ ID NO: 4) and 5′-[…]-3′ (antisense; SEQ ID NO: 5) for Cox-2, and 5′-[…]-3′ (SEQ ID NO: 6) and 5′-[…]-3′ (SEQ ID NO: 7) for β-actin. PCR reaction was carried out in a GeneAmp 2700 thermocycler (Applied Biosystems, Foster City, Calif.) under the following conditions: initial denaturation at 95° C. for 15 min; 35 cycles of 94° C. 30 s, 62° C. 30 s, 72° C. 1 min, and then 72° C. 5 min for final extension (57). PCR products were electrophoresed in 2% Agarose-1™ TAE gels containing 0.5 μg/ml ethidium bromide.

HT29-GFP cells = assay: HT29-GFP liver metastasis in nude mice; type: in vivo, mouse; details: sorbinil 40 mg/kg body weight in the diet, 34 days
Protocol: For in vivo metastasis studies, 4- to 6-weeks-old male nude^nu/nu mice were obtained from Harlan Sprague Dawley (Indianapolis, Ind.) and housed in clean, pathogen-free rooms in an environment with controlled temperature (22° C.), humidity and a 12 hours light/dark cycle. The mice were fed standard chow (Formula Chow 5008; Purina Mills, St. Louis, Mo.), given tap water ad libitum and were allowed to acclimate for 1 week. Metastatic HT29-GFP cells were injected intrasplenically by known methods.
Briefly, mice were anesthetized with halothane, a small left abdominal flank incision was created and the spleen was exteriorized. HT29-GFP cells were harvested using only trypsin and were resuspended as a single-cell suspension in Hanks Balanced Salt Solution, free of Mg^2+ and Ca^2+. HT29-GFP cells (5×10^6 cells/400 μl) were injected into the spleen with a 27-gauge needle. The spleen was returned to the abdomen and the wound was closed in one layer with wound clips. After 24 hrs spleen was removed and animals were randomized into metastatic control and AR inhibitor, sorbinil group. Control group was fed with normal diet and AR inhibitor group fed with sorbinil (40 mg/kg body weight) in the diet. Mice were killed after 35 days, and metastasis in the liver was evaluated by using the Illumatool TLS (Lightools Research, Encinitas, Calif.). […]

Caco-2 cells [2] = assay: PGE2 assay in Caco-2 cells; type: cell-based, human
Protocol: Caco-2 cells were plated in 6 well plates at a density of 2×10^5 cells/well. After 24 hours, the medium was replaced with fresh medium containing 0.1% serum with or without, sorbinil (20 μM) followed by treatment with either 10 ng/ml BFGF or PDGF, for another 24 h. HT29 cells were plated in 6 well plate at a density of 2×10^5 cells/well. After 24 hours, medium was replaced with serum-free medium with or without, sorbinil or zopolrestat (20 μM) followed by treatment with either EGF (5 ng/ml) or BFGF (10 ng/ml) for another 24 h. The medium from each cell lines was collected from each well and analyzed for PGE2 by using an Enzyme Immuno Assay kit according to the manufacturer's instructions (Cayman Chemical Co., Inc.).
Briefly, 50 μl of diluted standard/sample were pipetted into a pre-coated goat polyclonal anti-mouse IgG 96-well plate. Aliquots (50 μl) of a PGE2 monoclonal antibody and PGE2 acetylcholine esterase (AchE) conjugate, (PGE2 tracer) were added to each well and allowed to incubate at 4° C. for 24 h. After incubation, the wells were washed five times with wash buffer containing 0.05% Tween-20, followed by the addition of 200 μl of Ellman's reagent containing acetylthiocholine and 5,5′-dithio-bis-(2-nitrobenzoic acid). Samples were read after 60 min at 412 nm with an ELISA reader. In this procedure the intensity of yellow color, is proportional to the amount of PGE2 tracer bound to the well and is inversely proportional to the amount of free PGE2 present in the well during incubation.

Q: What does the source list for “(S)-6-fluorospiro[chroman-4,4′-imidazolidine]-2,5′-dione [sorbinil]”?
A: cardiac iNOS levels (C57BL/6 mice; after LPS): increased only slightly; phosphorylation of upstream kinases of NF-κB and AP1 (MAPK, IKK, PKC, PLC) in the heart (C57BL/6 mice; after LPS): attenuated; decrease of cardiac AP1 activation (C57BL/6 mice; at 2 h after LPS): ~70%; decrease of cardiac NF-κB activation (C57BL/6 mice; at 2 h after LPS): ~70%; time at which NF-κB and AP1 levels returned to baseline (C57BL/6 mice; mouse, in vivo): ≤ 24 h; prevention of BFGF or PDGF-induced Cox-2 mRNA levels (Caco-2 cells [1]): 55-65%; tumor metastasis to the liver (GFP fluorescence, pixel numbers) (HT29-GFP cells): significant decrease; prevention of PGE2 production induced by BFGF and PDGF (Caco-2 cells [2]; sorbinil 20 μM, 10 ng/ml BFGF or PDGF, 24 h): > 90%; GS-DHN-induced PGE2 production (Caco-2 cells [2]; sorbinil 24 h, GS-DHN-ester 24 h): had no effect; HNE and GS-HNE-induced PGE2 production (Caco-2 cells [2]; sorbinil 24 h, aldehydes 24 h): significantly prevented; constitutive levels of PGE2 (Caco-2 cells [2]; sorbinil alone): did not inhibit
